Data reported in patent publication US20240327393A1 (SIRONAX LTD., priority 2021, published 2024).

tested on: HT-1080 (ATCC, CCL-121) cells; test: HT-1080 cell viability assay with ferroptosis inducer RSL3 (Cell Titer-Glo); format: cell-based; settings: HT-1080 cells treated with RSL3; 3-fold, 10-point dilution, 1.1 μM highest concentration; Table 2; read-out: EC50 (nM), ferroptosis inhibitory activity
Outline: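 EC50 was derived by sigmoidal dose-response regression of CellTiter-Glo luminescence viability, expressed relative to untreated wells. Compounds were tested in a ten-point, threefold dilution series (highest 1.1 μM) in the presence of the ferroptosis inducer RSL3. HT-1080 cells had been seeded at 6000 per well and grown overnight first.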

| Compound | EC50 |
| --- | --- |
| Cc1cc(Nc2ccc3c(c2)OCC(=O)N3)ccc1N1CC(C)OC(C)C1 (stereo not drawn) [Compound 145, 7-((4-(2,6-dimethylmorpholino)-3-methylphenyl)amino)-2H-benzo[b][1,4]oxazin-3(4H)-one] | 0.1 to 100 nM |

same assay, conditions: HT-1080 cells treated with RSL3; 3-fold, 10-point dilution, 1.1 μM highest concentration; Table 3; read-out: EC50 (nM), ferroptosis inhibitory activity

| Compound | EC50 |
| --- | --- |
| Cc1cc(N2CCC(C(F)(F)F)CC2)ccc1Nc1ccc2c(c1)OCC(=O)N2 [Compound 515, 7-((2-methyl-4-(4-(trifluoromethyl)piperidin-1-yl)phenyl)amino)-2H-benzo[b][1,4]oxazin-3(4H)-one] | 0.1 to 100 nM |

same assay, conditions: Homo sapiens; HT-1080 cells treated with RSL3; 3-fold, 10-point dilution, 1.1 μM highest concentration; Table 2; read-out: EC50 (nM), ferroptosis inhibitory activity

| Compound | EC50 |
| --- | --- |
| CCCCCN(CCCCOC)c1ccc(Nc2ccc3c(c2)OCC(=O)N3C)cc1 [Compound 4, 7-((4-((4-methoxybutyl)(pentyl)amino)phenyl)amino)-4-methyl-2H-benzo[b][1,4]oxazin-3(4H)-one] | 0.1 to 100 nM |
| CC1CN(c2c(F)cc(Nc3ccc4c(c3)OCC(=O)N4C)cc2F)CC(C)O1 (stereo not drawn) [Compound 67] | 0.1 to 100 nM |
| FC(F)(F)C1CCN(c2ccc(Nc3ccc4cnoc4c3)cc2)CC1 [Compound 358, N-(4-(4-(trifluoromethyl)piperidin-1-yl)phenyl)benzo[d]isoxazol-6-amine] | 0.1 to 100 nM |
| CCCCOc1ccc(Nc2ccc3c(c2)OCC(=O)N3C)cc1 [Compound 5, 7-((4-butoxyphenyl)amino)-4-methyl-2H-benzo[b][1,4]oxazin-3(4H)-one] | 0.1 to 100 nM |
| CC1CN(c2ccc(Nc3ccc4c(c3)c(C(N)=O)cn4C)cc2)CC(C)O1 (stereo not drawn) [Compound 425, 5-((4-(2,6-dimethylmorpholino)phenyl)amino)-1-methyl-1H-indole-3-carboxamide] | 0.1 to 100 nM |
| Cc1cc(N2CCC(O)(C(F)(F)F)CC2)ccc1Nc1ccc2c(c1)OCC(=O)N2C [Compound 130, 7-((4-(4-hydroxy-4-(trifluoromethyl)piperidin-1-yl)-2-methylphenyl)amino)-4-methyl-2H-benzo[b][1,4]oxazin-3(4H)-one] | 0.1 to 100 nM |
| CC1CN(c2ccc(Nc3ccc4c(c3)OCC(=O)N4CCO)cc2)CC(C)O1 (stereo not drawn) [Compound 84, 7-((4-(2,6-dimethylmorpholino)phenyl)amino)-4-(2-hydroxyethyl)-2H-benzo[b][1,4]oxazin-3(4H)-one] | 0.1 to 100 nM |
| CCCCCN(CC)c1ccc(Nc2ccc3c(c2)n(C)c(=O)n3C)cc1 [Compound 260, 5-((4-(ethyl(pentyl)amino)phenyl)amino)-1,3-dimethyl-1,3-dihydro-2H-benzo[d]imidazol-2-one] | 0.1 to 100 nM |
| CCn1c(=O)cnc2cc(Nc3ccc(N4CCC(C)CC4)cc3)ccc21 [Compound 117] | 0.1 to 100 nM |
| CC1CN(c2ccc(Nc3ccc4c(c3)CN(C)C4)cc2)CC(C)O1 (stereo not drawn) [Compound 430, N-(4-(2,6-dimethylmorpholino)phenyl)-2-methylisoindolin-5-amine] | 0.1 to 100 nM |
| CN1C(=O)COc2cc(Nc3ccc4c(c3)CCCC4(C)C)ccc21 [Compound 37, 7-((5,5-dimethyl-5,6,7,8-tetrahydronaphthalen-2-yl)amino)-4-methyl-2H-benzo[b][1,4]oxazin-3(4H)-one] | 0.1 to 100 nM |
| CCN(CCCOC)c1ccc(Nc2ccc3c(c2)n(C)c(=O)n3C)cc1 [Compound 262, 5-((4-(ethyl(3-methoxypropyl)amino)phenyl)amino)-1,3-dimethyl-1,3-dihydro-2H-benzo[d]imidazol-2-one] | 0.1 to 100 nM |
| Cc1cc(C)c(Nc2ccc3c(c2)CN(C)C3=O)cn1 [Compound 236, 5-((4,6-dimethylpyridin-3-yl)amino)-2-methylisoindolin-1-one] | 0.1 to 100 nM |
| CC1CN(c2ccc(Nc3ccc4c(c3)OCC(=O)N4C)cc2)CCO1 (stereo not drawn) [Compound 149, 4-methyl-7-((4-(2-methylmorpholino)phenyl)amino)-2H-benzo[b][1,4]oxazin-3(4H)-one] | 0.1 to 100 nM |
| CC1CCN(c2ccc(Nc3ccc4c(c3)OCC(=O)N4C)cc2)CC1 [Compound 1, 4-methyl-7-((4-(4-methylpiperidin-1-yl)phenyl)amino)-2H-benzo[b][1,4]oxazin-3(4H)-one] | 0.1 to 100 nM |
| CCN(CC)c1ccc(Nc2ccc3c(c2)n(C)c(=O)n3C)cc1 [Compound 268, 5-((4-(diethylamino)phenyl)amino)-1,3-dimethyl-1,3-dihydro-2H-benzo[d]imidazol-2-one] | 0.1 to 100 nM |
| CC(C)C1CCN(c2ncc(Nc3ccc4c(c3)OCC(=O)N4C)cn2)CC1 [Compound 36, 7-((2-(4-isopropylpiperidin-1-yl)pyrimidin-5-yl)amino)-4-methyl-2H-benzo[b][1,4]oxazin-3(4H)-one] | 0.1 to 100 nM |
| CC(C)(C)c1ccc(Nc2ccc3cc(CCN)c(=O)oc3c2)cc1 [Compound 124, 3-(2-aminoethyl)-7-((4-(tert-butyl)phenyl)amino)-2H-chromen-2-one] | 0.1 to 100 nM |
| CC1CCC(C)N1c1ccc(Nc2ccc3c(=O)n(C)[nH]c3c2)cc1 (stereo not drawn) [Compound 259, 6-((4-(2,5-dimethylpyrrolidin-1-yl)phenyl)amino)-2-methyl-1,2-dihydro-3H-indazol-3-one] | 0.1 to 100 nM |
| CN1C(=O)COc2cc(Nc3ccc(N4CCC(C(F)(F)F)CC4)cc3)cnc21 [Compound 75, 4-methyl-7-((4-(4-(trifluoromethyl)piperidin-1-yl)phenyl)amino)-2H-pyrido[3,2-b][1,4]oxazin-3(4H)-one] | 0.1 to 100 nM |
| Cn1c(N(CC2CC2)CC2CC2)cc2ccc(Nc3ccc(N4CCC(C(F)(F)F)CC4)cc3)cc21 [Compound 397, N2,N2-bis(cyclopropylmethyl)-1-methyl-N6-(4-(4-(trifluoromethyl)piperidin-1-yl)phenyl)-1H-indole-2,6-diamine] | 0.1 to 100 nM |
| CN1Cc2ccc(Nc3ccc(N4CCC(F)(F)CC4)cc3)cc2C1=O [Compound 168, 6-((4-(4,4-difluoropiperidin-1-yl)phenyl)amino)-2-methylisoindolin-1-one] | 0.1 to 100 nM |
| CC1CN(c2ccc(Nc3ccc4c(c3)OCC(=O)N4C)cc2)CC(C)O1 (stereo not drawn) [Compound 44, 7-((4-(2,6-dimethylmorpholino)phenyl)amino)-4-methyl-2H-benzo[b][1,4]oxazin-3(4H)-one] | 0.1 to 100 nM |
| CCN(CCCOC)c1ccc(Nc2ccc3c(c2)OCC(=O)N3C)cc1 [Compound 31, 7-((4-(ethyl(3-methoxypropyl)amino)phenyl)amino)-4-methyl-2H-benzo[b][1,4]oxazin-3(4H)-one] | 0.1 to 100 nM |

same assay, conditions: Homo sapiens; HT-1080 cells treated with RSL3; 3-fold, 10-point dilution, 1.1 μM highest concentration; Table 3; read-out: EC50 (nM), ferroptosis inhibitory activity

| Compound | EC50 |
| --- | --- |
| O=C1COc2cc(Nc3cnc(N4CCC(C(F)(F)F)CC4)c(F)c3)ccc2N1 [Compound 459, 7-((5-fluoro-6-(4-(trifluoromethyl)piperidin-1-yl)pyridin-3-yl)amino)-2H-benzo[b][1,4]oxazin-3(4H)-one] | 0.1 to 100 nM |
| CC[C@@H]1CN(c2ccc(Nc3ccc4c(c3)OCC(=O)N4)c(C)n2)C[C@H](CC)O1 [Compound 499, 7-((6-((2S,6R)-2,6-diethylmorpholino)-2-methylpyridin-3-yl)amino)-2H-benzo[b][1,4]oxazin-3(4H)-one] | 0.1 to 100 nM |
| Cc1cc(N2CCCCC2)ccc1Nc1ccc2c(c1)OCC(=O)N2 [Compound 470, 7-((2-methyl-4-(piperidin-1-yl)phenyl)amino)-2H-benzo[b][1,4]oxazin-3(4H)-one] | 0.1 to 100 nM |
| Cc1cc(N2CC(OC(C)C)C2)ccc1Nc1ccc2c(c1)OCC(=O)N2 [Compound 640, 7-((4-(3-isopropoxyazetidin-1-yl)-2-methylphenyl)amino)-2H-benzo[b][1,4]oxazin-3(4H)-one] | 0.1 to 100 nM |
| Cc1cc(N2CC(C(F)(F)F)C2)ccc1Nc1ccc2c(c1)OCC(=O)N2 [Compound 583, 7-((2-methyl-4-(3-(trifluoromethyl)azetidin-1-yl)phenyl)amino)-2H-benzo[b][1,4]oxazin-3(4H)-one] | 0.1 to 100 nM |
| CC1CN(c2ccc(Nc3ccc4c(c3)OCC(=O)N4)cc2)CC(C(F)(F)F)O1 (stereo not drawn) [Compound 561, 7-((4-(2-methyl-6-(trifluoromethyl)morpholino)phenyl)amino)-2H-benzo[b][1,4]oxazin-3(4H)-one] | 0.1 to 100 nM |
| Cc1cc(N2CCC(C(F)(F)F)CC2)ccc1Nc1ccc2[nH]ncc2c1 [Compound 497, N-(2-methyl-4-(4-(trifluoromethyl)piperidin-1-yl)phenyl)-1H-indazol-5-amine] | 0.1 to 100 nM |
| Cc1cc(N2CC(F)(F)C(F)(F)C2)ccc1Nc1ccc2c(c1)OCC(=O)N2 [Compound 636, 7-((2-methyl-4-(3,3,4,4-tetrafluoropyrrolidin-1-yl)phenyl)amino)-2H-benzo[b][1,4]oxazin-3(4H)-on] | 0.1 to 100 nM |
| O=C1COc2cc(Nc3ccc(N4CCC(C(F)(F)F)CC4)cc3)cnc2N1 [Compound 450, 7-((4-(4-(trifluoromethyl)piperidin-1-yl)phenyl)amino)-2H-pyrido[3,2-b][1,4]oxazin-3(4H)-one] | 0.1 to 100 nM |
| O=C1COc2cc(Nc3ccc(N4CCC(C(F)(F)F)CC4)c(F)c3)ccc2N1 [Compound 486, 7-((3-fluoro-4-(4-(trifluoromethyl)piperidin-1-yl)phenyl)amino)-2H-benzo[b][1,4]oxazin-3(4H)-one] | 0.1 to 100 nM |
| COC1(C(F)(F)F)CCN(c2ccc(Nc3ccc4c(c3)OCC(=O)N4)c(C)c2)C1 (stereo not drawn) [Compound 616, 7-((4-(3-methoxy-3-(trifluoromethyl)pyrrolidin-1-yl)-2-methylphenyl)amino)-2H-benzo[b][1,4]oxazin-3(4H)-one] | 0.1 to 100 nM |
| CC1CC(c2ccc(Nc3ccc4c(c3)OCC(=O)N4)cc2)CCO1 (stereo not drawn) [Compound 479, 7-((4-(2-methyltetrahydro-2H-pyran-4-yl)phenyl)amino)-2H-benzo[b][1,4]oxazin-3(4H)-one] | 0.1 to 100 nM |
| Cc1c(Nc2ccc3c(c2)OCC(=O)N3)ccc(N2CCC(C(F)(F)F)CC2)c1C [Compound 487, 7-((2,3-dimethyl-4-(4-(trifluoromethyl)piperidin-1-yl)phenyl)amino)-2H-benzo[b][1,4]oxazin-3(4H)-one] | 0.1 to 100 nM |
